The text below walks through data of patent publication US8003659B2, “Macrocyclic serine protease inhibitors” (Indenix Pharmaceuticals, Inc., priority 2008, dated 2011).

Data set [1] in a line: Cytotoxicity (CC50) in the genotype 1b replicon assay. The class given is cell-based. The settings on record: human, GS4.1 cells; genotype 1b replicon assay as described in Example 32. As to the method: For cytotoxicity evaluation, GS4.1 cells were treated with compounds as described above and cellular viability was monitored using the Cell Titer 96 AQueous One Solution Cell Proliferation Assay (Promega). CC50 values were determined from the % cytotoxicity versus concentration data with Tecan Magellan software as described above.
Compounds were tested in a genotype 1b replicon assay as described in Example 32 and the results are summarized in Table 6, wherein A represents a value smaller than 1 μM, and B represents a value between 1 μM to 10 μM, C represents a value between 10 μM to 75 μM and D represents a value greater than 75 μM.
Background: In antiviral work, replicon cells carry a viral genome segment that copies itself.

A further data set relates to mutant protease D168A. Nature of the data set: Resistance profile, mutant protease D168A. In kind it is biochemical, HCV. Particulars: ratio of inhibitory activity against mutant enzyme over non-mutant enzyme. On the procedure: (§1) General procedure: Measurement of the inhibitory effect of compounds on HCV protease activity was performed with the SensoLyte™ 620 HCV Protease Assay kit from AnaSpec, Inc. (San Jose, Calif.) under conditions described by the supplier using 1.2 nM HCV NS3-NS4A protease, which was obtained according to Taremi et al. (Protein Science, 1998, 7, 2143-2149). The compounds were tested at a variety of concentrations in assay buffer containing a final DMSO concentration of 5%. Reactions were allowed to proceed for 60 min at room temperature and fluorescence measurements were recorded with a Tecan Infinity Spectrofluorimeter. The IC50 values were determined from the percent inhibition versus concentration data using a sigmoidal non-linear regression analysis based on four parameters with Tecan Magellan software.
(§2) Compounds were evaluated against three mutant proteases R155Q, A156S, and D168A, as summarized in Table 8, wherein A represents a value smaller than 1, and B represents a value between 1 to 10, and C represents a value greater than 10. The fold of change in inhibitory activity was determined by measuring the ratio of the inhibitory activity of a compound against a mutant enzyme over the inhibitory activity of the same compound against non-mutant enzyme. The inhibitory activity was determined using the procedure as described in Example 31.

Data set [2] relates to Huh-7 cells containing HCV Con1 subgenomic replicon (GS4.1 cells). Nature of the data set: HCV Replicon Assay (NS4A ELISA). The class given is cell-based. Particulars: Hepatitis C virus, Huh-7, 72 hr, NS4A protein by ELISA. The method in brief: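 GS4.1 cells (Huh-7 with HCV Con1 subgenomic replicon) given ten 2-fold compound dilutions (top 75 μM) or a single 15 μM dose in 0.5% DMSO for 72 h at 37 °C. NS4A measured by cell ELISA (A492); EC50 from four-parameter sigmoidal fit, single-dose results as % inhibition at 15 μM.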

A further data set has as its system mutant protease A156S. Briefly: Resistance profile, mutant protease A156S. In kind it is biochemical, HCV. Particulars: ratio of inhibitory activity against mutant enzyme over non-mutant enzyme. As to the method: as §1, §2
Another data set addresses T1, HCV NS3-NS4A protease (Hepatitis C virus genotype 1b, UniProt P26663).
T1 construct: made in house
Briefly: HCV Protease Assay (SensoLyte 620 HCV Protease Assay kit). The class given is biochemical. The settings on record: 1.2 nM HCV NS3-NS4A protease, 60 min at room temperature, 5% DMSO. The method in brief:
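Protease at 1.2 nM, run with the SensoLyte 620 fluorogenic kit under supplier conditions, with compounds at several concentrations in buffer with 5% final DMSO. Reactions ran 60 min at room temperature before fluorescence reading; IC50 from four-parameter sigmoidal fit of percent inhibition.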

For data set [3] the following is noted: from C=CCCCCN(C)C(=O)[C@@H]1C[C@H](Oc2cc(-c3nc(C(C)C)cs3)nc3c(Cl)c(OC)ccc23)CN1C(=O)N[C@]1(C(=O)NS(=O)(=O)C2CC2)C[C@H]1C=C; rcm bond; 14-membered ring; Zhan 1B (2%); DCE; 5.0 mM; 75.0 °C; 0.75 h.
In a further data set the test system is mutant protease R155Q. Briefly: Resistance profile, mutant protease R155Q. The class given is biochemical, HCV. The settings on record: ratio of inhibitory activity against mutant enzyme over non-mutant enzyme. On the procedure:
as §1, §2

T1 sequence (P26663 1027-1208): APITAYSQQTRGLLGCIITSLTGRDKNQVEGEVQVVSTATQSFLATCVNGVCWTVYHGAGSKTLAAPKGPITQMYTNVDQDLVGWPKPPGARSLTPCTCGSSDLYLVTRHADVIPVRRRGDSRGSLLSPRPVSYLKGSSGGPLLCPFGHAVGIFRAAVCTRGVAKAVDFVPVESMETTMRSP

The molecule `COc1ccc2c(O[C@H]3C[C@H]4C(=O)N(C)CCCC/C=C\[C@@H]5C[C@@]5(C(=O)NS(=O)(=O)C5CC5)NC(=O)N4C3)cc(-c3nc(C(C)C)cs3)nc2c1Cl` [Compound 62d, (Z)-(4R,6S,15S,17S)-[17-[8-chloro-7-methoxy-2-(4-isopropylthiazol-2-yl)quinolin-4-yloxy]-13-N-methyl-2,14-dioxo-1,3,13-triazatricyclo[13.3.0.0]octadec-7-en-4-yl]carbonyl(cyclopropyl)sulfonamide] registered a CC50 in data set [1] of 10 to 75 µM. The “Fold-Change D168A” value with mutant protease D168A is on record as “C (C represents a value greater than 10)”. The molecule further came in with an EC50 in data set [2] of less than 1 µM. The “Fold-Change A156S” value with mutant protease A156S was “A (A represents a value smaller than 1)”. On HCV NS3-NS4A protease, this molecule displayed an IC50 of less than 1 µM. The molecule also returned a ring closure, isolated yield in data set [3] of 63%. In addition, the “Fold-Change R155Q” value in the data set on mutant protease R155Q is “A (A represents a value smaller than 1)”.

By CC50 is commonly meant the concentration at which the toxic effect on the cells reaches its halfway point. Broadly, the EC50 is the concentration giving half of the maximal effect. By IC50 is commonly meant the concentration needed to halve the response being measured. High values mean weaker potency, low ones greater potency.
